Patent US12325697B2 (Nimbus Clio, Inc., priority 2021, dated 2025)

How the values were obtained:
[1] = molecular target: Recombinant human Cbl-b (aa 36-427) (Homo sapiens (Human), UniProt Q13191); assay: Cbl-b Biochemical Assay (TR-FRET); conditions: read-out: TR-FRET hCbl-b IC50
How it was run: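 Two-step TR-FRET: 6 nM biotinylated Cbl-b preincubated 30-60 min with compound, then 60 min at RT with 1-2.5 nM Src-Zap70 and 0.5 mM ATP in HEPES pH 7.0 buffer, 1% DMSO. Stopped with 5 mM EDTA plus 100 nM UBE2D2-Ub-FL-BODIPY and 1 nM streptavidin-Tb, 60 min; 520 nm signal; IC50 from 4-parameter fit.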

[2] = tested on: Jurkat (clone E6-1) cells, NFAT luciferase reporter; assay: Jurkat Reporter Assay (NFAT Luciferase); format: cell-based; conditions: Homo sapiens, anti-CD3 stimulation, 6 hr, read-out: Jurkat NFAT EC50
[3] = tested on: Phospho-Zap70 (Y-319) in Jurkat wild-type (clone E6-1) cells; assay: Jurkat pZAP70 HTRF Assay; format: cell-based; conditions: Homo sapiens, anti-CD3 5 μg/ml, 3 hr, read-out: ZAP70 Jurkat EC50

Chain of Recombinant human Cbl-b (aa 36-427) (Q13191 36-427): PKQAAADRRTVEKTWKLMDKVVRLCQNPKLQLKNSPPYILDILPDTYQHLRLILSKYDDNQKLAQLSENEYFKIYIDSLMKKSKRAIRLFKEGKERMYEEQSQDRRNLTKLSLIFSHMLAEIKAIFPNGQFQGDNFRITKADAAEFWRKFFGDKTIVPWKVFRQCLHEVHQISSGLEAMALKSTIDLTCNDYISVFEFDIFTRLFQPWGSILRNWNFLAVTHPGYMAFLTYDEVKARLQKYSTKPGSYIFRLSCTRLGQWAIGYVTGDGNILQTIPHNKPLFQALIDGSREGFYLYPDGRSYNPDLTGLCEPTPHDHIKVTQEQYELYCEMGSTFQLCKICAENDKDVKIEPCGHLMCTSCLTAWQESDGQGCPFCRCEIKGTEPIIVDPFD

SMILES	IC50 [1] [nM]	EC50 [2] [nM]	EC50 [3] [nM]
CCOc1cc(-c2ccc(C#N)cc2-c2nncn2C)cc(N2Cc3c(cc(CO)cc3C(F)(F)F)C2=O)n1 [AEW-2, 4-{2-Ethoxy-6-[6-(hydroxymethyl)-1-oxo-4-(trifluoromethyl)-3H-isoindol-2-yl]pyridin-4-yl}-3-(4-methyl-1,2,4-triazol-3-yl)benzonitrile]	≤ 200	< 200	200 to 1000
CC(=O)c1cc2c(c(C(F)(F)F)c1)CN(c1cc(-c3ccccc3-c3nncn3C)cc(C3CC3)n1)C2=O [AFS-1, 6-Acetyl-2-{6-cyclopropyl-4-[2-(4-methyl-1,2,4-triazol-3-yl)phenyl]pyridin-2-yl}-4-(trifluoromethyl)-3H-isoindol-1-one]	≤ 200	200 to 1000	10000 to 50000
CCNc1cc(-c2ccc(C#N)cc2-c2nncn2C)cc(N2Cc3c(cc(COCC4(O)CCC4)cc3C(F)(F)F)C2=O)n1 [AEZ-1, 4-[2-(ethylamino)-6-(6-{[(1-hydroxycyclobutyl)methoxy]methyl}-1-oxo-4-(trifluoromethyl)-3H-isoindol-2-yl)pyridin-4-yl]-3-(4-methyl-1,2,4-triazol-3-yl) benzonitrile]	≤ 200	< 200	200 to 1000
CCNc1cc(-c2ccc(C#N)cc2-c2nncn2C)cc(N2Cc3c(cc(COC4CC4)cc3C(F)(F)F)C2=O)n1 [AEV-3, 4-{2-[6-(Cyclopropoxymethyl)-1-oxo-4-(trifluoromethyl) -3H-isoindol-2-yl]-6-(ethylamino)pyridin-4-yl}-3-(4-methyl-1,2,4-triazol-3-yl) benzonitrile]	≤ 200	< 200	1000 to 10000
Cn1cnnc1-c1cc(F)ccc1-c1cc(C2CC2)nc(N2Cc3ccc(CO)cc3C2=O)c1 [AGH-2, 2-{6-Cyclopropyl-4-[4-fluoro-2-(4-methyl-1,2,4-triazol-3-yl)phenyl]pyridin-2-yl}-6-(hydroxymethyl)-3H-isoindol-1-one]	≤ 200	< 200	1000 to 10000
Cn1cnnc1-c1cc(F)ccc1-c1cc(C2CC2)nc(N2Cc3ccc(CNCC4CCCC4)cc3C2=O)c1 [AHH-3, 6-{[(Cyclopentylmethyl)amino]methyl}-2-{6-cyclopropyl-4-[4-fluoro-2-(4-methyl-1,2,4-triazol-3-yl)phenyl]pyridin-2-yl}-3H-isoindol-1-one]	≤ 200	< 200	< 200
Cn1cnnc1-c1ccccc1-c1cccc(N2Cc3c(cc(CNCC(C)(C)O)cc3C(F)(F)F)C2=O)c1 [AZ-2, 6-(((2-Hydroxy-2-methylpropyl)amino)methyl)-2-(2′-(4-methyl-4H-1,2,4-triazol-3-yl)-[1,1′-biphenyl]-3-yl)-4-(trifluoromethyl)isoindolin-1-one]	≤ 200	< 200	< 200
CN1CC[C@@H](COCc2cc3c(c(C(F)(F)F)c2)CN(c2cc(-c4ccc(F)cc4-c4nncn4C)cc(C4CC4)n2)C3=O)C1 [AHI-4, 2-{6-Cyclopropyl-4-[4-fluoro-2-(4-methyl-1,2,4-triazol-3-yl)phenyl]pyridin-2-yl}-6-({[(3R)-1-methylpyrrolidin-3-yl]methoxy}methyl)-4-(trifluoromethyl)-3H-isoindol-1-one]	≤ 200	< 200	200 to 1000
CCNc1cc(-c2c(-c3nncn3C)cnn2C)cc(N2Cc3c(cc(CNCC4(OC)CCC4)cc3C(F)(F)F)C2=O)n1 [AEQ-3, 2-[6-(Ethylamino)-4-[2-methyl-4-(4-methyl-1,2,4-triazol-3-yl)pyrazol-3-yl]pyridin-2-yl]-6-({[(1-methoxycyclobutyl)methyl]amino}methyl)-4-(trifluoromethyl)-3H-isoindol-1-one]	≤ 200	< 200	< 200
Cn1cnnc1-c1cnn(C)c1-c1cc(C2CC2)nc(N2Cc3c(cc(CNCC4(O)CCC4)cc3C(F)(F)F)C2=O)c1 [ADR-3]	≤ 200	< 200	< 200
Cn1cnnc1-c1cnn(C)c1-c1cccc(N2Cc3c(cc(CN[C@@H]4CCC[C@@H]4O)cc3C(F)(F)F)C2=O)c1 [ADO-2, 6-({[(1R,2S)-2-Hydroxycyclopentyl]amino}methyl)-2-{3-[2-methyl-4-(4-methyl-1,2,4-triazol-3-yl)pyrazol-3-yl]phenyl}-4-(trifluoromethyl)-3H-isoindol-1-one]	≤ 200	< 200	< 200
CCNc1cc(-c2c(-c3nncn3C)cnn2C)cc(N2Cc3c(cc(CO[C@@H]4CCC[C@@H]4O)cc3C(F)(F)F)C2=O)n1 (racemic) [ADB-1, (rac)-2-[6-(ethylamino)-4-[2-methyl-4-(4-methyl-1,2,4-triazol-3-yl)pyrazol-3-yl]pyridin-2-yl]-6-({[(1R,2S)-2-hydroxycyclopentyl]oxy}methyl)-4-(trifluoromethyl)-3H-isoindol-1-one]	≤ 200	200 to 1000	1000 to 10000
COCCNCc1cc2c(c(C(F)(F)F)c1)CN(c1cccc(-c3ccc(C#N)cc3-c3nncn3C)c1)C2=O [AEB-2, 3′-(6-(((2-Methoxyethyl)amino)methyl)-1-oxo-4-(trifluoromethyl)isoindolin-2-yl)-2-(4-methyl-4H-1,2,4-triazol-3-yl)-[1,1′-biphenyl]-4-carbonitrile]	≤ 200	< 200	< 200
CCNc1cc(-c2ccc(C#N)cc2-c2nncn2C)cc(N2Cc3c(cc(CN[C@@H]4CCC[C@@H]4O)cc3C(F)(F)F)C2=O)n1 [AEL-2, 4-[2-(Ethylamino)-6-[6-({[(1R,2S)-2-hydroxycyclopentyl]amino}methyl)-1-oxo-4-(trifluoromethyl)-3H-isoindol-2-yl]pyridin-4-yl]-3-(4-methyl-1,2,4-triazol-3-yl) benzonitrile]	≤ 200	< 200	< 200
Cn1cnnc1-c1ccccc1-c1cc(C2CC2)nc(N2Cc3cc(F)c(CNCC4(O)CCC4)cc3C2=O)c1 [AEI-5, 2-{6-Cyclopropyl-4-[2-(4-methyl-1,2,4-triazol-3-yl)phenyl]pyridin-2-yl}-5-fluoro-6-({[(1-hydroxycyclobutyl)methyl]amino}methyl)-3H-isoindol-1-one]	≤ 200	< 200	< 200
C[C@H](NCC1(O)CCC1)c1cc2c(c(C(F)(F)F)c1)CN(c1cc(-c3ccccc3-c3nncn3C)cc(C3CC3)n1)C2=O (single isomer, unassigned) [AFT-2]	≤ 200	< 200	< 200
Cn1cnnc1-c1cnn(C)c1-c1cc(C2CC2)nc(N2Cc3c(cc(CO[C@H]4CCC[C@H]4O)cc3C(F)(F)F)C2=O)c1 [AGA-1, 2-{6-Cyclopropyl-4-[2-methyl-4-(4-methyl-1,2,4-triazol-3-yl)pyrazol-3-yl]pyridin-2-yl}-6-({1[(1R,2S)-2-hydroxycyclopentyl]oxy}methyl)-4-(trifluoromethyl)-3H-isoindol-1-one]	≤ 200	< 200	200 to 1000
Cn1cnnc1-c1cc(F)ccc1-c1cc(C2CC2)nc(N2Cc3ccc(CNCC(C)(C)O)cc3C2=O)c1 [AHG-2, 2-{6-Cyclopropyl-4-[4-fluoro-2-(4-methyl-1,2,4-triazol-3-yl)phenyl]pyridin-2-yl}-6-{[(2-hydroxy-2-methylpropyl)amino]methyl}-3H-isoindol-1-one]	≤ 200	< 200	< 200
CCNc1cc(-c2ccc(C#N)cc2-c2nncn2C)cc(N2Cc3c(cc(CN[C@@H]4CCC[C@@H]4F)cc3C(F)(F)F)C2=O)n1 [AET-6, 4-[2-(Ethylamino)-6-[6-({[(1R,2S)-2-fluorocyclopentyl]amino}methyl)-1-oxo-4-(trifluoromethyl)-3H-isoindol-2-yl]pyridin-4-yl]-3-(4-methyl-1,2,4-triazol-3-yl) benzonitrile]	≤ 200	< 200	< 200
Cn1cnnc1-c1cc(F)ccc1-c1cc(C2CC2)nc(N2Cc3c(cc(CO)cc3C(F)(F)F)C2=O)c1 [AFK-1, 2-{6-Cyclopropyl-4-[4-fluoro-2-(4-methyl-1,2,4-triazol-3-yl)phenyl]pyridin-2-yl}-6-(hydroxymethyl)-4-(trifluoromethyl)-3H-isoindol-1-one]	≤ 200	< 200	< 200
CCNc1cc(-c2ccc(C#N)cc2-c2nncn2C)cc(N2Cc3c(cc([C@@H](O)CN(C)C)cc3C(F)(F)F)C2=O)n1 (single isomer, unassigned) [AGK-1]	≤ 200	< 200	200 to 1000
CCNc1cc(-c2ccc(C#N)cc2-c2nncn2C)cc(N2Cc3c(cc(CNC4CCCC4=O)cc3C(F)(F)F)C2=O)n1 (stereo not drawn) [AGC-5, 4-[2-(Ethylamino)-6-(1-oxo-6-{[(2-oxocyclopentyl)amino]methyl}-4-(trifluoromethyl)-3H-isoindol-2-yl)pyridin-4-yl]-3-(4-methyl-1,2,4-triazol-3-yl)benzonitrile]	≤ 200	< 200	200 to 1000
Cn1cnnc1-c1cc(F)ccc1-c1cc(C2CC2)nc(N2Cc3ccc(CNCC4(O)CCC4)cc3C2=O)c1 [AFH-1, 2-{6-Cyclopropyl-4-[4-fluoro-2-(4-methyl-1,2,4-triazol-3-yl)phenyl]pyridin-2-yl}-6-({[(1-hydroxycyclobutyl)methyl]amino}methyl)-3H-isoindol-1-one]	≤ 200	< 200	< 200
Cn1cnnc1-c1cnn(C)c1-c1cc(C2CC2)nc(N2Cc3ccc(CNCC4(O)CCCC4)cc3C2=O)c1 [AFQ-3, 2-{6-Cyclopropyl-4-[2-methyl-4-(4-methyl-1,2,4-triazol-3-yl)pyrazol-3-yl]pyridin-2-yl}-6-({[(1-hydroxycyclopentyl)methyl]amino}methyl)-3H-isoindol-1-one]	≤ 200	< 200	< 200
